Tests used:
Assay in all cases: Checkpoint abrogation after 6 Gy radiation, flow cytometry
Type in all cases: cell-based, human
Conditions in all cases: 12 h after drug
[1] = tested on: HCT116 cells
Protocol: (§1) The cells are fixed in 70% ethanol and stored at −20° C. until analysis is performed (1-2 weeks). After fixing, the cells are pelleted and incubated in PBS containing propidium iodide ([…]) and RNase A (200 mg/ml) for at least 30 min at room temperature. The samples (2×10^4 events) are analysed using a Becton Dickson FACScan, fluorescence is collected in fluorescence detector 2 (FL2), filter 575/30 nm band pass. Cell cycle distribution is assessed using Cell Quest software (Becton Dickson).
(§2) The ability of the protein phosphatase inhibitors to abrogate the G1 or G2 checkpoint of the cell cycle may be determined by cell cycle analysis using flow cytometry. Briefly, asynchronous cell cultures are harvested 18 h after 6 Gy irradiation and/or 12 h incubation with the protein phosphatase inhibitor. Depending upon the p53 status of the cell line, radiation treatment alone will induce arrest in either G1 and/or G2 phase of the cell cycle.
(§3) If the protein phosphatase inhibitor abrogates the G2 checkpoint then the cells will not arrest in the G2 phase of the cell cycle and the cells will continue through the cell cycle and accumulate in the G1 phase of the cell cycle only. Similarily if the protein phosphatase inhibitors abrogates the G1 checkpoint then the cells will not arrest in the G1 phase of the cell cycle and accumulate in the G2 phase of the cell cycle only. Cell cycle analysis using propidium iodide labelling of DNA has been used extensively in our laboratory to assess the effect of specific anticancer agents that induce S-phase cell cycle arrest and apoptotic cell death (Sakoff, Ackland and Stewart, 1998). Experiments were performed on a Becton Dickinson FACScan and using Cell Quest software.
(§4) The cells were treated with 6 Gy of radiation and then treated with cantharidin 6 h later. The ability to abrogate cell cycle arrest was assessed is 12 h after the addition of the drugs.

[2] = tested on: HL60 cells
Protocol: as §1, §2, §3, §4

[3] = tested on: HT29 cells
Protocol: as §1, §2, §3, §4

## O=C1OC(=O)C2C3C=CC(O3)C12 (stereo not shown) [MK-2]
[1]; HCT116, 250 μM, 18 h after 6Gy
  Cell Cycle Distribution, G2 + M: 65.4 percentage of total
  Cell Cycle Distribution, S: 4.3 percentage of total
  Cell Cycle Distribution, sub G: 6.2 percentage of total
[1]; HCT116, 500 μM, 18 h after 6Gy
  Cell Cycle Distribution, G1: 15.4 percentage of total
  Cell Cycle Distribution, G2 + M: 73.0 percentage of total
  Cell Cycle Distribution, S: 4.9 percentage of total
  Cell Cycle Distribution, sub G: 6.4 percentage of total
  Checkpoint remark: G1 abrogation
[1]; HCT116, 6 Gy
  Checkpoint abrogation: abrogated radiation induced G1 arrest
[2]; HL60, 50 μM, 18 h after 6Gy
  Cell Cycle Distribution, G1: 6.1 percentage of total
  Cell Cycle Distribution, G2 + M: 85.5 percentage of total
  Cell Cycle Distribution, S: 2.8 percentage of total
  Cell Cycle Distribution, sub G: 5.9 percentage of total
[2]; HL60, 100 μM, 18 h after 6Gy
  Cell Cycle Distribution, G1: 6.1 percentage of total
  Cell Cycle Distribution, G2 + M: 85.4 percentage of total
  Cell Cycle Distribution, S: 3.3 percentage of total
  Cell Cycle Distribution, sub G: 5.5 percentage of total
[2]; HL60, 250 μM, 18 h after 6Gy
  Cell Cycle Distribution, G1: 5.4 percentage of total
  Cell Cycle Distribution, G2 + M: 83.9 percentage of total
  Cell Cycle Distribution, S: 2.8 percentage of total
  Cell Cycle Distribution, sub G: 8.1 percentage of total
[2]; HL60, 500 μM, 18 h after 6Gy
  Cell Cycle Distribution, G1: 4.4 percentage of total
  Cell Cycle Distribution, G2 + M: 80.0 percentage of total
  Cell Cycle Distribution, S: 4.1 percentage of total
  Cell Cycle Distribution, sub G: 11.8 percentage of total
  Checkpoint remark: Cell Death
[2]; HL60, 6 Gy
  Checkpoint abrogation: abrogated radiation induced G1 arrest
[3]; HT29, 5 μM, 18 h after 6Gy
  Cell Cycle Distribution, G1: 31.8 percentage of total
  Cell Cycle Distribution, G2 + M: 41.3 percentage of total
  Cell Cycle Distribution, S: 8.7 percentage of total
  Cell Cycle Distribution, sub G: 17.3 percentage of total
[3]; HT29, 50 μM, 18 h after 6Gy
  Cell Cycle Distribution, G1: 35.4 percentage of total
  Cell Cycle Distribution, G2 + M: 44.7 percentage of total
  Cell Cycle Distribution, S: 8.8 percentage of total
  Cell Cycle Distribution, sub G: 10.3 percentage of total
[3]; HT29, 100 μM, 18 h after 6Gy
  Cell Cycle Distribution, G1: 40.6 percentage of total
  Cell Cycle Distribution, G2 + M: 45.9 percentage of total
  Cell Cycle Distribution, S: 9.0 percentage of total
  Cell Cycle Distribution, sub G: 3.5 percentage of total
[3]; HT29, 250 μM, 18 h after 6Gy
  Cell Cycle Distribution, G1: 24.9 percentage of total
  Cell Cycle Distribution, G2 + M: 59.4 percentage of total
  Cell Cycle Distribution, S: 12.3 percentage of total
  Cell Cycle Distribution, sub G: 2.7 percentage of total
[3]; HT29, 500 μM, 18 h after 6Gy
  Cell Cycle Distribution, G1: 24.1 percentage of total
  Cell Cycle Distribution, G2 + M: 45.2 percentage of total
  Cell Cycle Distribution, S: 20.4 percentage of total
  Cell Cycle Distribution, sub G: 8.8 percentage of total
  Checkpoint remark: G1 abrogation
[3]; HT29, 6 Gy
  Checkpoint abrogation: abrogated radiation induced G1 arrest

Source: US20060030616A1, “Anhydride modified cantharidin analogues useful in the treatment of cancer” (priority 1998, published 2006)
